# Data as given in PMC9645260, “Small-molecule inhibitors of P-Rex guanine-nucleotide exchange factors” (Small GTPases, 2022).
# Columns and labels:
# [1] = system: primary mouse neutrophils; assay: Neutrophil ROS production, PMA-stimulated; format: cell-based; conditions: 1 µM, 500 nM PMA
# Description: Prex^−/− mice (Prex1^−/−Prex2^−/−) with general P-Rex deficiency were described previously and were compared to Prex^+/+ (Prex1^+/+Prex2^+/+) control mice on the same genetic background (C57Bl6/129Ola backcrossed seven times to C57Bl6). Mice were group-housed (up to 5) under specific opportunistic pathogen-free isolator conditions in Babraham’s small animal barrier facility that uses 12 h light/dark cycles with dusk and dawn settings, and were fed chow diet and water ad libitum. Mice from both sexes were used for experiments, at young-adult age (between 8 and 14 weeks), and were sex- and age-matched between genotypes within experiments. […]
# Mature primary neutrophils were isolated from the bone marrow of age- and sex-matched Prex^+/+ and Prex^−/− mice freshly each day at 4°C, using Percoll^Plus (GE Healthcare) gradient, as described, using endotoxin-free media throughout. Isolated neutrophils were 70–90% pure, as assessed by KwikDiff staining of cytospins. ROS production was measured by real-time chemiluminescence assay as described, except that neutrophils were incubated with PREX-in1 before the assay. […] Real-time ROS production was recorded in a Berthold MicroLumat Plus luminometer (Berthold Technologies) at 37°C, for 2.5 min with fMLP stimulation or for 10 min with PMA stimulation. […]
# [2] = biological target: T1, full-length P-Rex2 (Homo sapiens, UniProt Q70Z35); assay: Liposome-based GEF activity assay, PIP3-stimulated full-length P-Rex2; format: biochemical; conditions: 40 nM P-Rex2, read-out: inhibition of PIP3-stimulated Rac-GEF activity of full-length P-Rex2
# T1 construct: Full-length N-terminally EE-tagged P-Rex1, P-Rex2; made in house; host or cells: Sf9 cells (baculovirus)
# T1 sequence (Q70Z35 whole entry): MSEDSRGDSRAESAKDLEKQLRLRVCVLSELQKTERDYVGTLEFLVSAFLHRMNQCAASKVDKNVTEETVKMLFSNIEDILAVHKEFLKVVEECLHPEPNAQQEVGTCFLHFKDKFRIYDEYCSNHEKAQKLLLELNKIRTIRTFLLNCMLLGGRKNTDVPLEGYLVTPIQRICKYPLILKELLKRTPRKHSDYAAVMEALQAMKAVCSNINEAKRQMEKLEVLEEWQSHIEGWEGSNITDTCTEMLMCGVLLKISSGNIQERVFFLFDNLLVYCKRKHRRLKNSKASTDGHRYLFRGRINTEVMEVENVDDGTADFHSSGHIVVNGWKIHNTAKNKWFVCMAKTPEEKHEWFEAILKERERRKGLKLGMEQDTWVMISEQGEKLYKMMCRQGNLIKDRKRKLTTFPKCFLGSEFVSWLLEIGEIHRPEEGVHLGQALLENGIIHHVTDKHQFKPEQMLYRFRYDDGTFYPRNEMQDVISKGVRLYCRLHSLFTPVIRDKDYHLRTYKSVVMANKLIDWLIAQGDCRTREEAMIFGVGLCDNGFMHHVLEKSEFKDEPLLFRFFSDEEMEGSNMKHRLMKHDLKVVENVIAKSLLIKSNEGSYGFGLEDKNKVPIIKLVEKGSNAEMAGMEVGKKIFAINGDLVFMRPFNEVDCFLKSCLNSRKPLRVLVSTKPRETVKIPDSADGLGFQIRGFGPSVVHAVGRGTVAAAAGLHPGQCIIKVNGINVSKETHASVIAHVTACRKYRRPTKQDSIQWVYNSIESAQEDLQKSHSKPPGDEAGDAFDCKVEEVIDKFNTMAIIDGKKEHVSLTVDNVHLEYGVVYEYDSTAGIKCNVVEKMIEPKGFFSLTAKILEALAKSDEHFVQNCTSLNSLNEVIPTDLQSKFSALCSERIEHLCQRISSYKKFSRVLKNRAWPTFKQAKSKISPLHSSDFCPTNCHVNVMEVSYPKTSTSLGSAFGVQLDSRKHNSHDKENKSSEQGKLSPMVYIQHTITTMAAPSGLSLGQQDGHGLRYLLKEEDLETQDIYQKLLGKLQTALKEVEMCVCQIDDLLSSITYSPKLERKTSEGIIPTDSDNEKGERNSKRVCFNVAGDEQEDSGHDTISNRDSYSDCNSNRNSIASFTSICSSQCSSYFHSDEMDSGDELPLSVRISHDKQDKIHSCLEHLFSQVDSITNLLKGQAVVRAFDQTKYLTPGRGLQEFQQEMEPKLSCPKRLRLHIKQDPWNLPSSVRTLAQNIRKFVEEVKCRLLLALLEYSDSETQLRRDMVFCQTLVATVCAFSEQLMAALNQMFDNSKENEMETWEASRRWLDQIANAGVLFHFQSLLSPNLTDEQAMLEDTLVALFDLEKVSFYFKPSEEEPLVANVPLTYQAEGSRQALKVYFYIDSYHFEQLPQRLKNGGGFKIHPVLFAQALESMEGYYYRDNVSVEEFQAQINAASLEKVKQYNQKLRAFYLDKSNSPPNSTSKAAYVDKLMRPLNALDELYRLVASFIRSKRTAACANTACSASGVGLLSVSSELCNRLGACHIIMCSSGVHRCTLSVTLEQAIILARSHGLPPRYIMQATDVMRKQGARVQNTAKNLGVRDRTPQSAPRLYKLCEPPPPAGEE
# Description: Full-length N-terminally EE-tagged P-Rex1, P-Rex2, the P-Rex1 DH and DHPH domains and the P-Rex2 DH domain were produced in Sf9 cells using baculoviral transduction and were purified using anti-EE beads, as previously described. Briefly, frozen pellets from 500 ml of Sf9 culture infected with P-Rex expressing high-titre baculovirus were resuspended in ice-cold lysis Sf9-cell lysis buffer 2 (1x PBS, 1% Triton X-100, 5 mM EGTA, 1 mM EDTA, 25 mM NaF, 20 mM β-glycerophosphate, 1 mM DTT, 100 µM PMSF, 10 μg/ml each of leupeptin, pepstatin A, aprotinin and antipain) for 5 min and then ultracentrifuged at 118,000 × g for 1 h at 4°C. Supernatants were incubated with pre-washed anti-EE beads for 90 min on ice with end-over-end rotation. […] Protein concentration and purity were determined by coomassie staining of SDS-PAGE gels. […]
# Liposome-based GEF activity assays were carried out essentially as described, except that GEFs were incubated with inhibitor compounds prior to the assay. […] Small GTPases were isolated using anti-EE antibody-coupled Sepharose beads or glutathione Sepharose beads, as appropriate, by incubation on ice for 90 min with end-over-end rotation, four washes in ice-cold wash buffer and resuspension of beads in Ultima Gold scintillation fluid (Perkin Elmer). ^35S-GTPγS incorporation was assessed by scintillation counting (Packard 1600TR, Liquid Scintillation Analyser).
structure (smiles),measurement,setting,value
"COc1ccc(-c2[nH]nc3c2C(c2ccc(-c4ccc(Cl)cc4)o2)C(C#N)=C(N)O3)cc1 (centres unmarked) [PREX-in1, 6-amino-4-[5-(4-chlorophenyl)-2-furyl]-3-(4-methoxyphenyl)-2,4-dihydropyrano[2,3-c]pyrazole-5-carbonitrile]",effect on PMA-induced ROS response,[1],unaffected
same,inhibition at 10 µM,[2],82%
